# ± gives the standard deviation of the averaged measurements.
# Tests used:
# [1] = system: S1507-2; assay: drug sensitivity score (DSS, CellTiter-Glo viability, 72 h) (DSS (dimensionless)); higher = more sensitive; extreme values may be limits of the assay
# Summary of the method: (§1)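 MPNST cell lines and primary human Schwann cells (750–1000 cells per well) went into 384-well plates preprinted with each compound at five concentrations in 10-fold steps. Plates were incubated 72 h at 37 °C, 5% CO2. Viability was read as CellTiter-Glo ATP luminescence, scaled between vehicle and positive-control wells, with duplicates averaged where present. Percent inhibition is at the top concentration; drug sensitivity score and relative IC50 (censored at top concentration) come from four-parameter logistic fits.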
# [2] = system: S462; assay: as above
# Summary of the method: as §1
# [3] = system: ST8814; assay: as above
# Summary of the method: as §1
# [4] = system: STS26T; assay: as above
# Summary of the method: as §1
# [5] = system: HS-PSS; assay: as above
# Summary of the method: as §1
# [6] = system: HS-Sch-2; assay: as above
# Summary of the method: as §1
# [7] = system: HSC2 (primary human Schwann cells); assay: as above
# Summary of the method: as §1
# [8] = system: HSC1 (primary human Schwann cells); assay: as above
# Summary of the method: as §1
# [9] = system: YST-1; assay: as above
# Summary of the method: as §1
# [10] = system: S1507-2; assay: drug sensitivity score (DSS, CellTox-Green cytotoxicity, 72 h) (DSS (dimensionless)); higher = more cytotoxic; extreme values may be limits of the assay
# Summary of the method: (§2)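 MPNST cell lines and primary human Schwann cells were incubated 72 h at 37 °C in 384-well plates holding five 10-fold compound dilutions. CellTox-Green was added before seeding at a final 1:1000 dilution and reported fluorescence from DNA released by disrupted cells. Signals were scaled to vehicle and positive-control wells, and cultures failing plate quality control were dropped. Drug sensitivity score and relative IC50 come from four-parameter logistic fits, with IC50 censored at the top concentration.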
# [11] = system: ST8814; assay: as above
# Summary of the method: as §2
# [12] = system: STS26T; assay: as above
# Summary of the method: as §2
# [13] = system: HS-PSS; assay: as above
# Summary of the method: as §2
# [14] = system: HSC2 (primary human Schwann cells); assay: as above
# Summary of the method: as §2
# [15] = system: HSC1 (primary human Schwann cells); assay: as above
# Summary of the method: as §2
# [16] = system: S1507-2; assay: % inhibition of CellTiter-Glo viability at highest tested concentration (72 h), relative to DMSO and benzethonium chloride controls; higher = more inhibition
# Summary of the method: as §1
# [17] = system: S462; assay: as above
# Summary of the method: as §1
# [18] = system: ST8814; assay: as above
# Summary of the method: as §1
# [19] = system: STS26T; assay: as above
# Summary of the method: as §1
# [20] = system: HS-PSS; assay: as above
# Summary of the method: as §1
# [21] = system: HS-Sch-2; assay: as above
# Summary of the method: as §1
# [22] = system: HSC2 (primary human Schwann cells); assay: as above
# Summary of the method: as §1
# [23] = system: HSC1 (primary human Schwann cells); assay: as above
# Summary of the method: as §1
# [24] = system: YST-1; assay: as above
# Summary of the method: as §1
Compound,drug sensitivity score [1],drug sensitivity score [2],drug sensitivity score [3],drug sensitivity score [4],drug sensitivity score [5],drug sensitivity score [6],drug sensitivity score [7],drug sensitivity score [8],drug sensitivity score [9],drug sensitivity score [10],drug sensitivity score [11],drug sensitivity score [12],drug sensitivity score [13],drug sensitivity score [14],drug sensitivity score [15],% inhibition [16] [%],% inhibition [17] [%],% inhibition [18] [%],% inhibition [19] [%],% inhibition [20] [%],% inhibition [21] [%],% inhibition [22] [%],% inhibition [23] [%],% inhibition [24] [%]
C=CC[C@@H]1/C=C(\C)C[C@H](C)C[C@H](OC)[C@H]2O[C@@](O)(C(=O)C(=O)N3CCCC[C@H]3C(=O)O[C@H](/C(C)=C/[C@@H]3CC[C@@H](O)[C@H](OC)C3)[C@H](C)[C@@H](O)CC1=O)[C@H](C)C[C@@H]2OC [Tacrolimus] (max concentration tested 10000 nM),0.168 ± 0.24,0,0.177,0,0,0,0,0.469,0,0,0,0,0,0,0,6.29 ± 12,1.38 ± 2.8,13.4,8.77,8.62,-0.54,5.26,19.9,7.06
COc1cc(Nc2ncc(F)c(Nc3ccc4c(n3)NC(=O)C(C)(C)O4)n2)cc(OC)c1OC [Tamatinib] (max concentration tested 10000 nM),0,0,0.365,0.0251,0,0.4,3.08,5.11,0,0.0129 ± 0.018,0.113,0.558,0,0.0662,0,-0.148 ± 3.2,4.27 ± 6.2,11.9,10.2,9.72,13.4,36.1,37.9,-0.14
CC/C(=C(\c1ccccc1)c1ccc(OCCN(C)C)cc1)c1ccccc1 [Tamoxifen] (max concentration tested 10000 nM),1.29 ± 0.79,0.757 ± 0.86,3.39,0.653,2.37,4.43,2.59,0.133,1.24,3.75 ± 4.3,6.84,0.396,0,0,0,35.2 ± 12,24.9 ± 13,65.2,22,55.4,61.6,52.1,14.8,29.6
COc1cc2c(N3CCN(C(=O)Nc4ccc(OC(C)C)cc4)CC3)ncnc2cc1OCCCN1CCCCC1 [Tandutinib] (max concentration tested 1000 nM),0.0556 ± 0.079,0,0,0,0,0,0,0,0,0,0,0,0,0,0,9.56 ± 1.9,0.414 ± 5.6,8.58,6.33,7.75,-3.01,-9.62,2.98,-3.87
C=CCNC1=C2C[C@@H](C)C[C@H](OC)[C@H](O)[C@@H](C)/C=C(\C)[C@H](OC(N)=O)[C@@H](OC)/C=C\C=C(/C)C(=O)NC(=CC1=O)C2=O [Tanespimycin] (max concentration tested 10000 nM),20.8 ± 0.74,17.9 ± 1.3,21,22.2,19,22.4,16.7,15.9,22.6,14.6 ± 1.2,7.63,14,5.08,19.1,17.9,98 ± 0.1,99.25 ± 0.39,96.5,96.1,89.1,100,98.2,96.8,75.3
C[C@@H](C(=O)O)c1ccc(-c2ccccc2)c(F)c1 [Tarenflurbil] (max concentration tested 10000 nM),0,0,0,0,0,0,0,0,0,0.283 ± 0.4,0,0,0,0,0,-1.93 ± 0.15,-5.38 ± 11,-0.223,-0.273,-1.84,-4.22,-6.06,1.66,-2.65
CO[C@H]1C[C@@H]2CC[C@@H](C)[C@@](O)(O2)C(=O)C(=O)N2CCCC[C@H]2C(=O)O[C@H]([C@H](C)C[C@@H]2CC[C@@H](OC(=O)C(C)(CO)CO)[C@H](OC)C2)CC(=O)[C@H](C)/C=C(\C)[C@@H](O)[C@@H](OC)C(=O)[C@H](C)C[C@H](C)/C=C/C=C/C=C/1C [Temsirolimus] (max concentration tested 100 nM),7.14 ± 2.6,6.03 ± 0.88,6.83,14.4,7.73,5.67,16.5,17.5,9.18,0.915 ± 1.3,0,0,0,0,0,28.4 ± 1.3,31.8 ± 11,23.2,47.2,30.8,29.2,51.2,47,46.1
COc1cc([C@@H]2c3cc4c(cc3[C@@H](O[C@@H]3O[C@@H]5CO[C@@H](c6cccs6)O[C@H]5[C@H](O)[C@H]3O)[C@H]3COC(=O)[C@H]23)OCO4)cc(OC)c1O [Teniposide] (max concentration tested 10000 nM),15.6 ± 3.6,23.7 ± 0.38,17.7,17.5,6.82,14,22.8,22.2,22.9,8.49 ± 4.7,14.7,11,1.46,9.8,11,92.44 ± 0.6,107.1 ± 0.24,87.2,93.7,68.2,94.8,100,92.8,88.2
O=C1CCC(N2C(=O)c3ccccc3C2=O)C(=O)N1 (stereo not drawn) [Thalidomide] (max concentration tested 10000 nM),0.783 ± 1.1,0,0.0095,0,0,0.45,0,0,0,0,0,0,0,0,0,13 ± 12,-8.98 ± 4.2,10.4,2.86,8.04,12.4,8.31,1.74,2.49
S=P(N1CC1)(N1CC1)N1CC1 [Thio-TEPA] (max concentration tested 50000 nM),0,0,0.888,0.888,0,0.99,0,0,0,0.0053 ± 0.0075,0,0,0,0,0.888,-14.5 ± 2.9,-14.47 ± 0.14,-6.39,-2.04,3.83,9.72,1.51,2.2,9.03
Nc1nc2[nH]cnc2c(=S)[nH]1 [Thioguanine] (max concentration tested 10000 nM),4.38 ± 1.2,7.88 ± 0.29,10.7,10.6,7.46,8.53,0,0.0001,8.84,0.992 ± 1.4,0.689,4.01,0,0,0,60.8 ± 2.1,74.5 ± 5.8,80.4,81,76.4,79.2,-7.39,10.4,88.8
Cn1cncc1[C@@](N)(c1ccc(Cl)cc1)c1ccc2c(c1)c(-c1cccc(Cl)c1)cc(=O)n2C [Tipifarnib] (max concentration tested 10000 nM),14.3 ± 0.82,10.58 ± 0.032,8.98,14,5.39,7.08,8.8,6.55,13.9,0,0,9.1,0,0,0.209,64.095 ± 0.013,75.3 ± 2,59.9,87.3,46.5,78,66.7,69.7,73.1

# Reference: the supplement of paper PMC5579334
